Test results reported in ChEMBL document CHEMBL1127067 (1993).

Legend:
Assay type in all cases: functional
Mus musculus [1] = experiment: Antitumor activity against P388 leukemia in BDF1/CDF1 mice expressed as percentage increase in life span at optimum dose of 12.5 mg/kg
Mus musculus [2] = organism: Mus musculus; experiment: Number of survivors after treating 12 mice (infected with B16 melanoma) for 60 days
Mus musculus [3] = organism: Mus musculus; experiment: Number of survivors after treating 42 mice (infected with P388 leukemia) for 30 days
Mus musculus [4] = experiment: Antitumor activity against B-16 melanoma in BDF1 mice expressed as percentage increase in life span at optimum dose of 6 mg/kg; settings: B16

In the case of `C(=N\NC1=NCCN1)/c1c2ccccc2c(/C=N/NC2=NCCN2)c2ccccc12` [BISANTRENE], the ILS at 12.5 mg/kg (Mus musculus [1]) was 137%, the Cures (Mus musculus [2]) was 2 and the Cures (Mus musculus [3]) was 17. For the same compound, the ILS at 6 mg/kg (Mus musculus [4]) was 122%.
